Results published in article doi:10.1101/2023.08.01.551199v1, “Activation of cannabinoid CB2 receptors by (−)-cannabichromene but not (+)-cannabichromene” (biorxiv, 2023).

Experiments:
Assay type in all cases: cell-based
[1] = target: T1, human TRPA1 (Homo sapiens, UniProt O75762); assay: fluorescent intracellular calcium assay (FLIPR Ca5), HEK293-TRPA1 cells; settings: agonist; 37 °C, pH 7.4, 0.1% DMSO, 1.25 mM probenecid
T1 construct: tetracycline-induced expression in HEK293 FlpIn/T-REx cells
T1 sequence (O75762 whole entry): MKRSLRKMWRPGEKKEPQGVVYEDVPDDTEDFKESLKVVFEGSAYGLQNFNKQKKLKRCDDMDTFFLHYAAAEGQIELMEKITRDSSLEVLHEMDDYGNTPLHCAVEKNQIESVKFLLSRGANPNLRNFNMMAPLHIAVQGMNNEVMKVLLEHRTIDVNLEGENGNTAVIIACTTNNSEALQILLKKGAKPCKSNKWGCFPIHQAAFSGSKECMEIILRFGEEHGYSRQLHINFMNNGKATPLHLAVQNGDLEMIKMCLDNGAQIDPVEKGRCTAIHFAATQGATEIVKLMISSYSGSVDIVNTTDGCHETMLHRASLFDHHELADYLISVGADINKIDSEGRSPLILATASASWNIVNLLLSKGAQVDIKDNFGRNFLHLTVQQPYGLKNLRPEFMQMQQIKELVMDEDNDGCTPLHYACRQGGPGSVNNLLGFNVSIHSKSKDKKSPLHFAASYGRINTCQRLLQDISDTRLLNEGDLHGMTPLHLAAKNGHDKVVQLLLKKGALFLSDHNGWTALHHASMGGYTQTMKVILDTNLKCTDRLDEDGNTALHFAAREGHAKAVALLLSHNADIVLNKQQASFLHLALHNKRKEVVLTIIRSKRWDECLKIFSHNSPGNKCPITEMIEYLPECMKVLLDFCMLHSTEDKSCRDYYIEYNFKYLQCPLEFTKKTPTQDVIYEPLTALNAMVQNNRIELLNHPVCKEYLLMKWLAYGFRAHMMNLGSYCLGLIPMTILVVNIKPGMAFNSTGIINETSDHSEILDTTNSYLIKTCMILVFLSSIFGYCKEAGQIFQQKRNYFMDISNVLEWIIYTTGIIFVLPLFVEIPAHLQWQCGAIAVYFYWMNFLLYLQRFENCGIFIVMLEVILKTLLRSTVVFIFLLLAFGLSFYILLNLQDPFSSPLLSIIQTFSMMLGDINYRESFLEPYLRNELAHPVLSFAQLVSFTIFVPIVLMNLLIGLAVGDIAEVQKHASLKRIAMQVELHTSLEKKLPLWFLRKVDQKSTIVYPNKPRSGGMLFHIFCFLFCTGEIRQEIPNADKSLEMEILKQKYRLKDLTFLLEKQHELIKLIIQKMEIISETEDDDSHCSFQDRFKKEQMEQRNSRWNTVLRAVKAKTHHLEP

[2] = target: T2, human CB2 (Homo sapiens, UniProt P34972); assay: fluorescent membrane potential assay (MPA Blue), AtT20-CB2 cells; settings: 37 °C, pH 7.4, 0.1% DMSO; no activation up to the highest concentration tested
T2 construct: gene CNR2; stably expressed in AtT20 FlpIn cells
T2 sequence (P34972 whole entry): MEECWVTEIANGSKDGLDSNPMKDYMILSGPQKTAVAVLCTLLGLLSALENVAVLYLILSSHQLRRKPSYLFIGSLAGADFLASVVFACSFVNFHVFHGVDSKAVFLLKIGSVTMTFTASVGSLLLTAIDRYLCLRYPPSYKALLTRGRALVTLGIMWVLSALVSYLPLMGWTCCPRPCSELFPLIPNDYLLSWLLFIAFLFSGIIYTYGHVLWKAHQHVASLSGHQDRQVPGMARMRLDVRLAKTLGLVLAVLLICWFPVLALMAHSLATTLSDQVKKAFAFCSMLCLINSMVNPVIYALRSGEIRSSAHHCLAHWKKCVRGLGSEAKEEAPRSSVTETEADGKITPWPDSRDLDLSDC

[3] = target: T1, human TRPA1; assay: fluorescent intracellular calcium assay (FLIPR Ca5), HEK293-TRPA1 cells
From the text: fluorescent intracellular calcium assay (FLIPR Ca5), HEK293-TRPA1 cells on human TRPA1 | In HEK293-TRPA1 cells cinnamaldehyde produced an increase in Ca5 fluorescence

Row | SMILES | increase in fluorescence at 30 μM [1] | EC50 [2] | EC50 [3]
1 | CCCCCc1cc(O)c2c(c1)OC(C)(CCC=C(C)C)C=C2 (single isomer, unassigned; (+)) [(+)-CBC] | 159 ± 27% | > 30 µM | 
2 | O=CC=Cc1ccccc1 [cinnamaldehyde] |  |  | 11 µM
